Data: publication PMC8308911, “Pharmacokinetic Study of Anti-osteoarthritic Compounds of a Standardized Fraction from Sphaeralcea Angustifolia” (Pharmaceuticals, 2021)
“And” between values parts separate entries of the source, which are not always exact repeats. Equal values may be shown once. Read-outs that look alike come from different tables or passages of the source.

Key:
[1] = design: method as in PMID 23384552; dose or concentration left out as unconfirmed; conditions: feces and urine; ref [20]; cited from earlier work
[2] = Stability of the active compounds in mouse plasma under handling and storage conditions; conditions: mice plasma
Procedure: The investigation presented here expected manipulation conditions during all of the sample storage and process periods, which included the stability data from the freeze/defrost, bench-top, autosampler, and long-term stability tests. For all stability studies, fresh QC samples were evaluated by using a freshly prepared standard curve for the measurements. The analyzed conditions were 0, 8, and 24 h at room temperature, 8 h at 4 °C, and 30 days at −70 °C. The concentrations obtained from all of the stability studies were compared with the fresh QC samples, and the percentage of concentration deviation was calculated.

[3] = Pharmacokinetics after single oral administration of the SaTSS standardized fraction (plasma, HPLC, PKSolver); assay type: in vivo, ICR mice
Procedure: Analyses of HPLC were carried out in a Waters system (2695 Separation module) coupled to a diode array detector (2996) with a 190–600-nm detection range and operated by the Manager Millennium software system (Empower 1; Waters Corporation, Mexico City, Mexico). Separations were performed in a Spherisorb-ODS RP-18 column (250 × 4.6 mm, 5 µm; Waters Corporation, Mexico) employing a constant temperature of 25 °C during the analyses. Samples (20 µL) were eluted at a 1.0 mL/min flow rate with a gradient of mobile phases of (A) high-purity H2O with trifluoroacetic acid to 0.5% v/v (TFA, Sigma-Aldrich, Mexico City, Mexico) and (B) high purity CH3CN, and compounds were detected by monitoring absorbance for tomentin and scopoletin at λ = 343 nm and for sphaeralcic acid at λ = 357 nm. The mobile phase was started with water (100%) and was maintained for 1 min, then solvent B was gradually incorporated at 5% (at 2 min), at 30% (at 4 min), and at 50% (at 16 min). During the next 4 min, solvent B was increased to 100%, and this proportion was maintained for 5 min. Finally, the following 3 min were utilized to return the mobile phase to the initial condition. […] Identification of scopoletin and tomentin as well as sphaeralcic acid was performed by comparing their retention times (tomentin—11.288 min, scopoletin—11.349 min, coumarin mixure—11.457 min, and sphaeralcic acid—23.319 min) and absorbance spectra.
The mice were previously anesthetized with sodium pentobarbital (PiSA Agropecuaria), then retro-orbital sinus blood was obtained using heparinized capillaries and distributed to heparinized tubes, and tubes were centrifuged at 3500 g for 7 min. The plasma obtained was transferred to new tubes and stored at −4 °C until use.
Plasma samples were extracted with CH3CN and TFA (w/v) 20% (1:1), then vials were centrifuged at 14,000 g for 10 min and the supernatant was transferred to another vial and left to dry at room temperature. The precipitate was resuspended with 1 mL of high-purity methanol (Merk, México) and filtered through Teflon membrane (13 mm, 0.45 µm, Life Science). Each filtered sample was injected into the HPLC equipment, and the concentrations of tomentin and scopoletin at λ = 343 nm and of sphaeralcic acid at λ = 357 nm were obtained by comparison with pre-built calibration curves.
To evaluate the suitability of the assay for the pharmacokinetic studies, 400 mg/kg of the active SaTSS fraction standardized in a mixture of tomentin and scopoletin (7.1 mg/400 mg), and sphaeralcic acid (34.6 mg/400 mg) was administered orally or intravenously to the mice. The dose of SaTSS fraction was chosen based on previous research of active compounds, as the median efective dose of each compound and detectable concentrations of them in the fraction. For oral pharmacokinetics, ten animals were used in each group at different times (0, 1.3, 3.3, 5, 10, 20, 40, 60, 80, 120, and 240 min). For intravenous pharmacokinetics, three animals were used in each group at different times (2, 4, 6, 8, 10, 15, 20, 30, and 60 min) Subsequently, the mice were anesthetized, retro-orbital sinus blood was obtained, plasma samples were extracted with CH3CN and TFA (w/v) 20% (1:1), and the extracts were analyzed by HPLC for coumarin (tomentin and scopoletin) and sphaeralcic acid quantification. Pharmacokinetic calculations were performed using the observed data. All data were subsequently processed using the PKSolver add-in program for Microsoft Excel written in Visual Basic for Applications. All values obtained were expressed in mean ± Standard Deviation (SD). For the pharmacokinetic assay, the selection was made either from a one-compartment or from a two-compartment model, with the use of both the Akaike Information Criterion (AIC) and the Schwarz Criterion (SC). […]

[4] = Autosampler (4 °C, 8 h), nominal 2.5 μg/mL
[5] = Autosampler (4 °C, 8 h), nominal 5 μg/mL
[6] = Autosampler (4 °C, 8 h), nominal 10 μg/mL
[7] = Long-term (−70 °C, 1 month), nominal 2.5 μg/mL
[8] = Long-term (−70 °C, 1 month), nominal 5 μg/mL
[9] = Long-term (−70 °C, 1 month), nominal 10 μg/mL
[10] = room temperature, 0 h, nominal 2.5 μg/mL
[11] = room temperature, 0 h, nominal 5 μg/mL
[12] = room temperature, 0 h, nominal 10 μg/mL
[13] = room temperature, 8 h, nominal 2.5 μg/mL
[14] = room temperature, 8 h, nominal 5 μg/mL
[15] = room temperature, 8 h, nominal 10 μg/mL
[16] = room temperature, 24 h, nominal 2.5 μg/mL
[17] = room temperature, 24 h, nominal 5 μg/mL
[18] = room temperature, 24 h, nominal 10 μg/mL
[19] = oral 400 mg/kg SaTSS fraction, two-compartment model
[20] = oral 400 mg/kg SaTSS fraction, two-compartment model, 400 mg/kg
[21] = oral 400 mg/kg SaTSS fraction, two-compartment model, listed as Sphaeralcic Acid, 400 mg/kg
[22] = oral 400 mg/kg SaTSS fraction, two-compartment model, listed as sphaeralcic acid, 400 mg/kg

## COc1c(C)cc2c(C(C)C)cc(C(=O)O)c(O)c2c1O [Sphaeralcic acid, sphaeralcic acid]
[1]
  route of elimination: enterohepatic route
[2]; [4]
  Accuracy Bias: −3.89%
  Observed Concentration: 2.40 ± 0.04 µg/mL
[2]; [5]
  Accuracy Bias: −1.69%
  Observed Concentration: 4.92 ± 0.08 µg/mL
[2]; [6]
  Accuracy Bias: −3.34%
  Observed Concentration: 9.67 ± 0.12 µg/mL
[2]; [7]
  Accuracy Bias: −4.82%
  Observed Concentration: 2.38 ± 0.08 µg/mL
[2]; [8]
  Accuracy Bias: −2.61%
  Observed Concentration: 4.87 ± 0.10 µg/mL
[2]; [9]
  Accuracy Bias: −3.50%
  Observed Concentration: 9.65 ± 0.08 µg/mL
[2]; [10]
  Accuracy Bias: −0.60%
  Observed Concentration: 2.48 ± 0.03 µg/mL
[2]; [11]
  Accuracy Bias: 0.17%
  Observed Concentration: 5.01 ± 0.06 µg/mL
[2]; [12]
  Accuracy Bias: −0.49%
  Observed Concentration: 9.95 ± 0.11 µg/mL
[2]; [13]
  Accuracy Bias: −9.98%
  Observed Concentration: 2.25 ± 0.13 µg/mL
[2]; [14]
  Accuracy Bias: −8.10%
  Observed Concentration: 4.59 ± 0.06 µg/mL
[2]; [15]
  Accuracy Bias: −6.48%
  Observed Concentration: 9.35 ± 0.11 µg/mL
[2]; [16]
  Accuracy Bias: −9.03%
  Observed Concentration: 2.27 ± 0.11 µg/mL
[2]; [17]
  Accuracy Bias: −8.73%
  Observed Concentration: 4.56 ± 0.10 µg/mL
[2]; [18]
  Accuracy Bias: −7.37%
  Observed Concentration: 9.26 ± 0.07 µg/mL
[3]; ICR, mouse, plasma, po, 400 mg/kg, oral 400 mg/kg SaTSS fraction, two-compartment model
  AUC(0-inf): 3470 ng·h/mL
[3]; ICR, mouse, plasma, po, 400 mg/kg, oral 400 mg/kg SaTSS fraction, two-compartment model, read-out: AUC 0→240 (converted)
  AUC(0-t): 2900 ng·h/mL
[3]; ICR, mouse, plasma, po, 400 mg/kg, oral 400 mg/kg SaTSS fraction, two-compartment model, read-out: CL/F (apparent clearance related to bioavailability)
  CL/F: 170 mL/min/kg
[3]; ICR, mouse, plasma, po, 400 mg/kg, oral 400 mg/kg SaTSS fraction, two-compartment model, read-out: Cmax
  Cmax: 10400 ng/mL
[3]; ICR, mouse, plasma, po, 400 mg/kg, oral 400 mg/kg SaTSS fraction, two-compartment model, read-out: MRT (mean residence time) (converted)
  MRT: 40.2 min
[3]; ICR, mouse, plasma, po, 400 mg/kg, oral 400 mg/kg SaTSS fraction, two-compartment model, read-out: Tmax (converted)
  Tmax: 4 min
[3]; ICR, mouse, plasma, po, 400 mg/kg, oral 400 mg/kg SaTSS fraction, two-compartment model, read-out: V/F (apparent volume of distribution related to bioavailability)
  Vd/F: 1.31 L/kg
[3]; ICR, mouse, plasma, po, 400 mg/kg, oral 400 mg/kg SaTSS fraction, two-compartment model, read-out: k10 (apparent first-order elimination rate constant from the central compartment) (converted)
  k el: 0.00217 s⁻¹
[3]; ICR, mouse, plasma, po, 400 mg/kg, oral 400 mg/kg SaTSS fraction, two-compartment model, read-out: t1/2β
  half-life: 44.6 min
[3]; ICR, mouse, plasma, oral single dose 400 mg/kg SaTSS fraction, 1.3 min, n = 10
  concentration at 1.3 min: 5040 ± 50 ng/mL
[3]; ICR, mouse, plasma, oral single dose 400 mg/kg SaTSS fraction, 3.3 min, n = 10
  concentration at 3.3 min: 9920 ± 410 ng/mL
[3]; ICR, mouse, plasma, oral single dose 400 mg/kg SaTSS fraction, 5 min, n = 10
  concentration at 5 min: 12800 ± 540 ng/mL
[3]; ICR, mouse, plasma, oral single dose 400 mg/kg SaTSS fraction, 10 min, n = 10
  concentration at 10 min: 4030 ± 110 ng/mL
[3]; ICR, mouse, plasma, oral single dose 400 mg/kg SaTSS fraction, 20 min, n = 10
  concentration at 20 min: 2770 ± 80 ng/mL
[3]; ICR, mouse, plasma, oral single dose 400 mg/kg SaTSS fraction, 40 min, n = 10
  concentration at 40 min: 1380 ± 120 ng/mL
[3]; ICR, mouse, plasma, oral single dose 400 mg/kg SaTSS fraction, 80 min, n = 10
  concentration at 80 min: 170 ± 30 ng/mL
[3]; ICR, mouse, plasma, oral single dose 400 mg/kg SaTSS fraction, 120 min, n = 10
  concentration at 120 min: 0 ng/mL
[3]; ICR, mouse, plasma, oral single dose 400 mg/kg SaTSS fraction, 240 min, n = 10
  concentration at 240 min: 0 ng/mL
[3]; after oral administration of SaTSS fraction
  products derived from biotransformation in plasma: not detected
[3]; oral 400 mg/kg SaTSS fraction
  time at which the plasma concentration fell below LOQ: 80 min
[3]; oral 400 mg/kg SaTSS fraction, observed sampling time
  time of maximum (highest) observed plasma concentration: five
[3]; [19]
  B (plasma concentration, peripheral compartment): 1.845 µg/mL
  k12 (transfer rate constant central to peripheral compartment): 0.114 min⁻¹
  k21 (transfer rate constant peripheral to central compartment): 0.031 min⁻¹
  α: 0.256 min⁻¹
  β: 0.015 min⁻¹
[3]; [20]
  Cmax: 10450 ng/mL
  MRT (mean residence time): 40.17 min
[3]; [21]
  A (plasma concentration, central compartment): 413.646 µg/mL
  AUC 0→240: 173.724 µg·min/mL
  AUC 0→∞: 208.058 µg·min/mL
  CL/F (apparent clearance related to bioavailability): 0.166 (mg)/(µg/mL)/min
  Cmax: 10447 ng/mL
  MRT (mean residence time): 40.167 min
  Tmax: 4.004 min
  V/F (apparent volume of distribution related to bioavailability): 1.309 (mg)/(µg/mL)
  k10 (apparent first-order elimination rate constant from the central compartment): 0.127 min⁻¹
  ka (apparent first-order absorption rate constant): 0.273 min⁻¹
  t1/2ka (absorption half time): 2.537 min
  t1/2α: 2.698 min
  t1/2β: 44.653 min
[3]; [22]
  A (plasma concentration, central compartment): 413 µg/mL
  ka (apparent first-order absorption rate constant): 0.27 min⁻¹ and 0.273 min⁻¹
  t1/2ka (absorption half time): 2.53 min
  t1/2α: 2.70 min
